From article PMC6010047, “Design, synthesis and biological evaluation of novel hydroxy-phenyl-1H-benzimidazoles as radical scavengers and UV-protective agents” (Journal of Enzyme Inhibition and Medicinal Chemistry, 2017) come the findings set out here.

Data set [1] in a line: UV spectra: λmax and molar extinction coefficient. The settings on record: for λ max: aqueous solution at pH 7; for ɛ (molar extinction coefficient): aqueous solution at pH 7, at λ max, linear regression Lambert–Beer. The data set is classed as physicochemical. As to the method:
Sun protection factor (SPF) is related to the UV absorption of the substances, so before including the molecules in cosmetic formulations we evaluated the wavelength of maximum absorption (λmax) and the molar extinction coefficient (ɛ) of each molecule in aqueous solution at pH 7. The UV spectra were recorded between 270 and 420 nm (20 nm higher and lower then UVA and UVB range) to verify the spectrum profile of the molecules within UVA and UVB region. UV spectrum of PBSA is an UVB filter and presents a λmax of 302 nm; after this peak, the absorbance fades going to higher wavelength until almost zero around 325 nm, and then, it provides no absorption in the UVA region. Molecules spectra overlapped for category according to the substituent in position 5 of the benzimidazole ring are shown in Figures 1, 2 and 3; PBSA spectrum is presented in all figures for comparison.
From the spectra appears that the lambda maxima (Table 2) of the new molecules shifted toward higher wavelength and in general the range of absorption curve was wider than PBSA. Within a group of molecules, the batochromic shift was more marked for the molecules that have a hydroxyl moiety in position 2 of the phenyl ring (4, 5, 6, 9, 10, 11, 13 and […]); the effect of ortho substituted is known to produce this shift toward higher wavelength. Increasing the number of auxochrome groups on phenyl ring an increment in the absorption range occurred, compounds with three hydroxyl on the phenyl ring (6, 11, 15) had the broadest spectrum and their lambda maxima shifted at the highest wavelength compared to the other compounds. The absorption spectrum of molecules with the same number and position of hydroxyl seemed only slightly influenced by the substituent in position 5 of the benzimidazole ring. After having established the lambda maxima for every compound, solutions at different concentrations were prepared to calculate the molar extinction coefficient by means of linear regression and applying Lambert–Beer equation (Table 2).

The nature of data set [2]: In vitro evaluation of filtering parameters of formulations on PMMA plates (Diffey and Robson). The settings on record: 3% (w/w) in O/W formulation, PMMA plates. The source says:
It was decided to use a standard formulation oil in water (O/W).
In vitro approaches consist in applying a thin film of sunscreen product on an artificial substrate and test, via spectrophotometric measures, the amount of UV radiation passing through the film. Several different artificial substrates are available for this type of analysis; the substrate should be as closed as possible to the physical characteristics of the skin. Among the substrates available for these purposes, the substrate used in this study to analyse the sunscreen products were PMMA plates. This substrate is easily handled and can be supplied with a reproducible roughness. WW5 PMMA plates have been purchased from Schonberg GmbH (Munich, Germany). The plates, used in this study, have an area of 25 cm^2 and standardized […] roughness. Transmittance and absorbance measurements were carried out by a SHIMAZDU UV-2600 provided of integrating sphere ISR 2600 60 mm and coupled with a SPF determination software and a PMMA plate with approximately 15 μL of glycerin served as reference.
In order to evaluate possible activity as sun filters and antioxidants, suitable in the development of novel class of dualistic sunscreens, the synthesized molecules were included at the concentration of 3% (w/w) in a topical formulation. To this end standard oil in water (O/W) formulation was devised, taking into account the absence of any UV filtering and/or antioxidant molecule, in order to obtain a reference formulation. It was not possible to analyze compound 7 in the formulation because of high instability (phase separation induced by 7). Formulations containing the active ingredients were tested for their SPF efficacy by the in vitro method derived from Diffey and Robson[32], in comparison with the same formulation containing the reference PBSA.
This method is based on the measure of spectral transmission of ultraviolet radiation, with and without the sunscreen applied, through an irregular substrate that simulates the skin surface and permits transmission of UV radiation. Although with some limitation, the test is used to predict SPF in vivo and to screen the filtering activity of new molecules that cannot be tested by in vivo because of lacking of more data concerning safety. The critical wavelength (λc) for the test product is defined as that wavelength where the area under the absorbance spectrum for the irradiated product from 290 nm to λc is 90% of the integral of the absorbance spectrum from 290 nm to 400 nm. Critical wavelength value of greater than 370 nm is necessary, in order to satisfy requirements for broad-spectrum UVB/UVA protection and associated labeling. Polymethylmethacrylate plates (PMMA) with a specific roughness were a satisfactory substrate for this method, because they are UV-transparent, nonfluorescent, photostable and inert to all potential sunscreen formulation ingredients. Table 3 lists the data obtained for the model formulation containing the synthesized compounds. These parameters are necessary to evaluate whether a sunscreen fulfills the requirements for efficacy, and they are SPF, UVA protection factor (UVAPF), UVA/UVB ratio and critical wavelength.
A set of model formulations was prepared: an oil-in-water emulsion (O/W), without sunscreen molecules (Ref. A, Figure 5), prepared as reference formulation; two formulations containing PBSA or oxisol (12) at 3% were prepared (Ref. C and B, respectively, Figure 5), in order to evaluate the filter properties of oxisol (12). Moreover, as stated earlier, SPF booster properties were assayed on other four formulations including a mix of filters with a theoretical SPF value of 15 and 30, adding 3% of oxisol (12) or PBSA (Ref. E, F, G, H, Figure 5). […]

Data set [3] is classed as physicochemical. As to the method:
HPLC analysis was performed using an Agilent 1100 Series HPLC System equipped with a G1315A DAD, and with a Hydro-RP C18 Synergi 80 Å column (4.6 × 150 mm, 4 μm) from Phenomenex, maintained at 25 °C during all the time of the analysis. The mobile phase consisted of water (0.01 M H3PO4) (solvent A) and acetonitrile (0.01 M H3PO4) (solvent B). • PBSA and 3: the determination was carried out in isocratic condition, A: 91%/B: 9%. Separation was monitored with absorbance detection at λmax of the molecule ±8 nm. The flow rate was 1.0 mL/min. • […]: the determination was carried out in isocratic condition, A: 84%/B: 16%. Separation was monitored with absorbance detection at λmax of the molecule ±8 nm. The flow rate was 1.0 mL/min
Molecules 3 and 12 were challenged in accelerated stability studies against the parent compound. The formulations were submitted to accelerated aging at 40 °C and analyzed at specific intervals, with HPLC.

In the case of “2-(2,4-Dihydroxy-phenyl)-1H-benzimidazole [Compound 9]”, in data set [1], the λ max was 315 nm and the “ɛ (molar extinction coefficient)” value is 14 000. Besides, in data set [2], the SPF stood at 3.57 ± 0.23, the UVA/UVB is 1.10 ± 0.05, the UVAPF is listed as 1.89 ± 0.05 and the “λc (critical wavelength)” value is listed as 380 nm.

Take “2-(2-Hydroxy-phenyl)-1H-benzimidazole [Compound 10]”: in data set [1], the λ max was found to be 315 nm and the “ɛ (molar extinction coefficient)” value is 17 000. In addition, in data set [2], the SPF was determined as 1.96 ± 0.14, the UVA/UVB came to 1.01 ± 0.02, the UVAPF is 1.06 ± 0.08 and the “λc (critical wavelength)” value is listed as 378 nm.

For `O=S(=O)(O)c1ccc2[nH]c(-c3ccc(O)cc3)nc2c1` [Compound 2, 2-(4-Hydroxy-phenyl)-1H-benzimidazole-5-sulfonic acid], in data set [1], the λ max worked out at 308 nm and the “ɛ (molar extinction coefficient)” value is 25 000. In data set [2], the SPF turned out to be 4.74 ± 0.15, the UVA/UVB was 0.51 ± 0.01, the UVAPF is recorded as 1.36 ± 0.07 and the “λc (critical wavelength)” value came to 346 nm.

On to `O=S(=O)(O)c1ccc2[nH]c(-c3ccc(O)c(O)c3)nc2c1` [Compound 3, 2-(3,4-Dihydroxy-phenyl)-1H-benzimidazole-5-sulfonic acid], for which, in data set [1], the λ max was found to be 313 nm and the “ɛ (molar extinction coefficient)” value is recorded as 23 000. Further, in data set [3], the “% of remaining compounds T0” value amounted to 100%, the “% of remaining compounds T7” value was 96,7%, the “% of remaining compounds T14” value is 89,6% and the “% of remaining compounds T21” value was 86,3%. Moreover, in data set [3], the “% of remaining compounds T28” value was 73,4%, the “% of remaining compounds T35” value is 73,4%, the “% of remaining compounds T49” value is reported as 67,6% and the “% of remaining compounds T63” value is listed as 64,6%. Further, in data set [2], the SPF is on record as 9.83 ± 0.64, the UVA/UVB is reported as 0.74 ± 0.04, the UVAPF came out at 3.63 ± 0.23 and the “λc (critical wavelength)” value came to 358 nm.

On to `O=S(=O)(O)c1ccc2[nH]c(-c3ccccc3O)nc2c1` [Compound 4, 2-(2-Hydroxy-phenyl)-1H-benzimidazole-5-sulfonic acid], for which, in data set [1], the λ max was found to be 315 nm and the “ɛ (molar extinction coefficient)” value is 21 000. In data set [2], the SPF turned out to be 2.22 ± 0.13, the UVA/UVB was 0.96 ± 0.01, the UVAPF was determined as 1.06 ± 0.07 and the “λc (critical wavelength)” value is on record as 355 nm.

Turning to `O=S(=O)(O)c1ccc2[nH]c(-c3ccc(O)cc3O)nc2c1` [Compound 5, 2-(2,4-Dihydroxy-phenyl)-1H-benzimidazole-5-sulfonic acid], in data set [1], the λ max is 318 nm and the “ɛ (molar extinction coefficient)” value was 23 000. Further, in data set [2], the SPF was 2.18 ± 0.14, the UVA/UVB is reported as 1.13 ± 0.01, the UVAPF came out at 1.21 ± 0.04 and the “λc (critical wavelength)” value came out at 370 nm.

On to `O=S(=O)(O)c1ccc2[nH]c(-c3ccc(O)c(O)c3O)nc2c1` [Compound 6, 2-(2,3,4-Trihydroxy-phenyl)-1H-benzimidazole-5-sulfonic acid], for which, in data set [1], the λ max is 328 nm and the ɛ (molar extinction coefficient) turned out to be 22200 L/mol/cm. For the same compound, in data set [2], the SPF was determined as 5.99 ± 0.12, the UVA/UVB stood at 0.89 ± 0.03, the UVAPF is 2.72 ± 0.08 and the “λc (critical wavelength)” value amounted to 383 nm.

`Oc1ccc(-c2nc3ccccc3[nH]2)cc1O` [Compound 8, 2-(3,4-Dihydroxy-phenyl)-1H-benzimidazole]: in data set [1], the λ max stood at 311 nm and the “ɛ (molar extinction coefficient)” value is recorded as 16 000. For the same compound, in data set [2], the SPF was found to be 5.20 ± 0.20, the UVA/UVB is recorded as 0.78 ± 0.02, the UVAPF came to 1.90 ± 0.09 and the “λc (critical wavelength)” value came out at 368 nm.

As to `Oc1ccc(-c2nc3ccccc3[nH]2)c(O)c1O` [Compound 11, 2-(2,3,4-Trihydroxy-phenyl)-1H-benzimidazole], in data set [1], the λ max was found to be 325 nm and the “ɛ (molar extinction coefficient)” value is 12 000. Besides, in data set [2], the SPF is listed as 2.85 ± 0.22, the UVA/UVB amounted to 0.90 ± 0.01, the UVAPF is 1.35 ± 0.1 and the “λc (critical wavelength)” value came out at 381 nm.

Take `O=C(O)c1ccc2[nH]c(-c3ccc(O)cc3O)nc2c1` [Compound 13, 2-(2,4-Dihydroxy-phenyl)-1H-benzimidazole-5-carboxylic acid]: in data set [1], the λ max is reported as 321 nm and the “ɛ (molar extinction coefficient)” value is recorded as 20 000. In addition, in data set [2], the SPF came to 2.85 ± 0.17, the UVA/UVB is 1.27 ± 0.02, the UVAPF is 1.58 ± 0.10 and the “λc (critical wavelength)” value amounted to 368 nm.

`O=C(O)c1ccc2[nH]c(-c3ccc(O)cc3)nc2c1` [Compound 14, 2-(4-Hydroxy-phenyl)-1H-benzimidazole-5-carboxylic acid]: in data set [1], the λ max is on record as 312 nm and the “ɛ (molar extinction coefficient)” value is 24 000. In data set [2], the SPF was determined as 6.01 ± 0.31, the UVA/UVB stood at 0.70 ± 0.05, the UVAPF is on record as 2.04 ± 0.11 and the “λc (critical wavelength)” value worked out at 350 nm.

In the case of `O=C(O)c1ccc2[nH]c(-c3ccc(O)c(O)c3O)nc2c1` [Compound 15, 2-(2,3,4-Trihydroxy-phenyl)-1H-benzimidazole-5-carboxylic acid], in data set [1], the λ max is 332 nm and the “ɛ (molar extinction coefficient)” value was 17 000. In data set [2], the SPF is reported as 3.69 ± 0.24, the UVA/UVB is recorded as 0.96 ± 0.08, the UVAPF worked out at 1.87 ± 0.08 and the “λc (critical wavelength)” value stood at 382 nm.
